Results on 1 compound are retold here after BindingDB's records for doi:10.1021/jm0611051 (Gsk, 2007).

The target of the test is Angiopoietin-1 receptor (Homo sapiens, UniProt Q02763). The experiment in a line: Homogeneous Time-Resolved Fluorescence (HTRF) Enzyme Assay. The protocol: The assay uses purified GST-Tie-2 or GST-VEGFR2 interacting with biotinylated peptide substrates. HTRF is based on the proximity of europium cryptate (donor fluorophore)-labeled antiphosphotyrosine and streptavidin labeled with APC (allophycocyanin), which have been brought together by a binding reaction. […] The IC50 values for inhibitors were determined by a four-parameter sigmoidal curve fit.
Angiopoietin-1 receptor, sequence (Q02763 whole entry): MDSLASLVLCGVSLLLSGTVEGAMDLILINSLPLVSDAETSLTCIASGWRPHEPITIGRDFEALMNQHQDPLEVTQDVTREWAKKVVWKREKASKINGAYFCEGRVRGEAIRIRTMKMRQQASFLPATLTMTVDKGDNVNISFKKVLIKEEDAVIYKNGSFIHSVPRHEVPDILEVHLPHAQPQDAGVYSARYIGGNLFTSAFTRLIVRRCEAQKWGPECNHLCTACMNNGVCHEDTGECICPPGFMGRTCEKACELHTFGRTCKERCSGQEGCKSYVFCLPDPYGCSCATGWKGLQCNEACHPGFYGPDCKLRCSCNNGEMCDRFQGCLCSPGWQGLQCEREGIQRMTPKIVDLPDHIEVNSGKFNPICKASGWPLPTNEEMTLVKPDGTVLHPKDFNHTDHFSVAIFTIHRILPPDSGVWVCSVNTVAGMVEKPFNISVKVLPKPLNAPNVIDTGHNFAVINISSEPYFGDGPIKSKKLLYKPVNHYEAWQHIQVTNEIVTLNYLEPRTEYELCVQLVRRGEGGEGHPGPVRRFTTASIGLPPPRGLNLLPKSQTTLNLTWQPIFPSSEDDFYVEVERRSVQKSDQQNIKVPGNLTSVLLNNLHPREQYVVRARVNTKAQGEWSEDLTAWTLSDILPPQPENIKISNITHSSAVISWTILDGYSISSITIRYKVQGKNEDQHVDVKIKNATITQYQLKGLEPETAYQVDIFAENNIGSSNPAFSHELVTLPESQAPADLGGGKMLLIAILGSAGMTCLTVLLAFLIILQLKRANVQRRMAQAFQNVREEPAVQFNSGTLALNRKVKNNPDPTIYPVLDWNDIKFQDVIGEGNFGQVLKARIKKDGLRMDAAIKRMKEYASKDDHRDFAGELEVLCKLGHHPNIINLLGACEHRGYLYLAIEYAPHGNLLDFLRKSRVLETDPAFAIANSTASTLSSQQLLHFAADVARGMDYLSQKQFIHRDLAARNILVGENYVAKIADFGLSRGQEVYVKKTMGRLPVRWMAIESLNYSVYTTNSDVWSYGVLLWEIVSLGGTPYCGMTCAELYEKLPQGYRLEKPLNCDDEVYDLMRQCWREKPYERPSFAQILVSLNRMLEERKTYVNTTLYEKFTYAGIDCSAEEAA

As for `O=C(Nc1ccc(Oc2ccc3nc(NC(=O)c4ccccc4-n4cccc4)[nH]c3c2)cc1)Nc1cc(C(F)(F)F)ccc1F` [N-(6-(4-((2-Fluoro-5(trifluoromethyl)phenyl)aminocarbonylamino)phenoxy)-1H-benzimidazol-2-yl)-2-(1H-pyrrol-1-yl)benzamide], the IC50 stood at 1300 nM.

In general, IC50 refers to the concentration at which inhibition is half-maximal.
